Measured values reported in publication PMC12744750 (Plant Communications, 2025).

Legend:
[1] = Anaerobic Cu(I) titration monitored by UV-vis and fluorescence spectra; type: binding; conditions: 19.8 μM synthetic PLS, titration with CuCl; features at 242 nm and 306 nm
Experimental: Freeze-dried synthetic PLS peptide (Cambridge Research Biochemicals) was dissolved in DMSO. An aliquot was added to aqueous buffer (10 mM HEPES [pH 7], 20 mM NaCl, 80 mM KCl), and absorbance was recorded at 280 nm. PLS concentration was estimated from the absorbance and the ProtParam estimated extinction coefficient of 2980 M^−1 cm^−1. Concurrently, a sample was submitted for quantitative amino acid analysis (Abingdon Health Laboratory Services). From this analysis, a conversion factor of 2.27 was generated, which was applied to the concentrations determined by A280 nm.
All Cu(I) titration experiments were carried out in an anaerobic chamber (Belle Technology) using metal-free CHELEX-treated, degassed buffers. […] The reductant NH2OH was included at a final concentration of 1 mM to maintain Cu(I) in its reduced state. […] After each addition, solutions were thoroughly mixed and absorbance spectra recorded using a Lambda 35 UV/Vis spectrophotometer (PerkinElmer). Titration isotherm data were fitted using simulated affinity curves with DynaFit ([Kuzmič, 2009]).

[2] = Titration of PLS in the presence of BCA2-Cu(I) complex; type: binding; conditions: PLS serially diluted from 496 µM to 214 nM; 125 µM BCA, 50 µM CuCl, 50 mM HEPES, 150 mM NaCl, 20 mM ascorbate, pH 7.6; A562 nm, n = 3
Experimental: Figure S9. Titration of PLS in the presence of BCA2-Cu(I)-Complex.
A solution of synthetic PLS in 50 µl buffer (50 mM HEPES, 150 mM NaCl, pH 7.6) was serially diluted from 496 µM to 214 nM. After the addition of 50 µl BCA2-Cu(I) buffer (50 mM HEPES, 150 mM NaCl, 20 mM ascorbate, 125 µM BCA, 50 µM CuCl, pH 7.6) the absorbance at 562 nm was measured. Discoloration of the pink BCA2-Cu(I) complex visible in the decrease of absorption at higher peptide concentration indicates […]
chelator BCA. Bars represent means ± SD, n = 3.
(1 picture or pasted object on this page, not shown here)

PLS(FL): full-length 36-amino-acid PLS peptide from Arabidopsis (MKPRLCFNFRRRSISPCYISISYLLVAKLFKLFKIH)
Cu(I)-dependent change of UV-vis and fluorescence spectra [1]: consistent with complex formation | competition for copper with BCA [2]: able to effectively compete and remove copper
